Measurements as given in paper PMC10410612 (2023).

Legend:
[1] = test system: poly(rU)*poly(rA)·poly(rU) (RNA, polymer) U/A/U; assay: UV melting; conditions: NaCac 2.5 mM; pH 7.0; 1:1 ratio complex/polynucleotide; free Tm 46.9 °C; per base
[2] = test system: poly(rA)·poly(rU) (RNA, polymer) A/U; assay: ethidium bromide displacement fluorescence; conditions: NaCac 2.5 mM; pH 7.0; tracer ethidium bromide; some interaction
[3] = test system: poly(rA)·poly(rU) (RNA, polymer) A/U; assay: UV-vis absorbance titration, HypSpec2014 fit; conditions: NaCac 2.5 mM; pH 7.0, 25.0 °C; per base pair, site size n = 1
[4] = test system: poly(rA)·poly(rU) (RNA, polymer) A/U; assay: UV melting; conditions: NaCac 2.5 mM; pH 7.0; 1:1 ratio complex/polynucleotide; free Tm 47.9 °C; per base
[5] = test system: poly(rU)*poly(rA)·poly(rU) (RNA, polymer) U/A/U; assay: UV-vis absorbance titration, HypSpec2014 fit; conditions: NaCac 2.5 mM; pH 7.0, 25.0 °C; per base triplet, site size n = 1

ΔTm [1]: 1.6 ± 0.5 °C | binding [2]: yes | K [3]: (6.0 ± 0.9) × 10^5 | ΔTm [4]: -6.5 ± 0.9 °C | K [5]: (3.1 ± 0.9) × 10^5
SMILES: C=[C-]c1cccc(OC(=O)c2ccccc2OC(C)=O)c1.[C-]#[O+].[C-]#[O+].[C-]#[O+].[Ru+2].[Ru+2].c1cc[cH-]c1.c1cc[cH-]c1
